Non-standard residues stand in square brackets, D forms with d. Residues, ends and D or L forms follow the SMILES beside them. Primed or numbered codes have the meaning given here. No end group written: not given here. *: point of attachment. FITC = O=C1OC2(c3ccc(O)cc3Oc3cc(O)ccc32)c2ccc(NC(=S)*)cc21; Phe(4-Me) = Cc1ccc(C[C@H](N)C(=O)O)cc1; FITC′ = not defined here
B1: FITC-conjugated VPM-p15 (ADGRG2 Stachel peptide p15 T1V/F3Phe(4-Me)) (peptide)
chain: VS[Phe(4-Me)]GILLDLSRTSLP-{FITC′}

Columns and labels:
Rluc-ADGRG2-ΔGPS-β M839A = molecular target: T1, Rluc-ADGRG2-ΔGPS-β M839A (Mus musculus, UniProt Q8CJ12, M853A); experiment: BRET binding of FITC-VPM-p15; conditions: mutant M839A
T1 construct: expressed in transfected cells; host or cells: HEK293
T1 sequence (Q8CJ12 614-1009 M853A): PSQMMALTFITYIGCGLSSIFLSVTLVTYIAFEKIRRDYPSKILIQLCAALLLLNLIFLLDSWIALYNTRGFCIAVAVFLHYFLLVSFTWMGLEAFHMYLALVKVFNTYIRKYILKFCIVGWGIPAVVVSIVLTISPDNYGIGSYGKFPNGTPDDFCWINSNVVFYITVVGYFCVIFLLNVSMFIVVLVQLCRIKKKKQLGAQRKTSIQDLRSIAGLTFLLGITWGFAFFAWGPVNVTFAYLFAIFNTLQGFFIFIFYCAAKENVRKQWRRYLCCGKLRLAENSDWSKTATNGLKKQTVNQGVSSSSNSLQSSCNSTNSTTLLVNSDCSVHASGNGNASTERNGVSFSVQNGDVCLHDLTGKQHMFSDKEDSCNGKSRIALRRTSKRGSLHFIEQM
Experimental: (§1) The binding capacities of ADGRG2 WT or its mutants for VPM-p15 were determined by BRET assay, which has been used in previous studies ([27], [28], [29]). We fused the N terminus of ADGRG2 with a Rluc fragment and coupled FITC to the C terminus of VPM-p15 to facilitate BRET measurement. We stimulated the HEK293 cells transfected with Rluc-ADGRG2-ΔGPS-β wildtype (WT) or mutants by increasing the concentration of FITC-conjugated VPM-p15, and their binding abilities were determined by fitting the data with the saturation curves.
(§2) In the detection of binding capacities of ADGRG2 WT or its mutants for VPM-p15, HEK293 cells were transfected with Rluc-ADGRG2-ΔGPS-β or mutants. Transfected cells were stimulated by increasing the concentration of FITC-conjugated VPM-p15. Binding capacities were determined by BRET, EC50 values of ADGRG2 WT and its mutants for binding VPM-p15 were calculated by GraphPad, and data were normalized by EC50 of WT.

Rluc-ADGRG2-ΔGPS-β S661A = molecular target: T2, Rluc-ADGRG2-ΔGPS-β S661A (Mus musculus, UniProt Q8CJ12, S675A); experiment: BRET binding of FITC-VPM-p15; conditions: mutant S661A
T2 construct: the entire ECD (including the entire GPS motif) was removed (ADGRG2-ΔGPS-β); expressed in transfected cells; host or cells: HEK293
T2 sequence (Q8CJ12 618-1009 S675A limits assumed): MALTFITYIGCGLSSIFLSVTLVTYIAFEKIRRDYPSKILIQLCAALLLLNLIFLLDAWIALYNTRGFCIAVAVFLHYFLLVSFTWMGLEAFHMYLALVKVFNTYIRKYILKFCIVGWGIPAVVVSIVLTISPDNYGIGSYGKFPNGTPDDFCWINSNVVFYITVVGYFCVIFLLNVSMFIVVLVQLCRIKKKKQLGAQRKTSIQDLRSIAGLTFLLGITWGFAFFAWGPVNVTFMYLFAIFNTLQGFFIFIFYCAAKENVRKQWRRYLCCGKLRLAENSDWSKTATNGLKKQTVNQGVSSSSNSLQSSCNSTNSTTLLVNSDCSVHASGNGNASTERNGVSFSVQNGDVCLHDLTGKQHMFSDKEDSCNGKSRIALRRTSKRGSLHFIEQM
Experimental: as §1, §2

Rluc-ADGRG2-ΔGPS-β L679A = molecular target: T3, Rluc-ADGRG2-ΔGPS-β L679A (Mus musculus, UniProt Q8CJ12, L693A); experiment: BRET binding of FITC-VPM-p15; conditions: mutant L679A
T3 construct: the entire ECD (including the entire GPS motif) was removed (ADGRG2-ΔGPS-β); expressed in transfected cells; host or cells: HEK293
T3 sequence (Q8CJ12 618-1009 L693A limits assumed): as the sequence (Q8CJ12 618-1009 S675A limits assumed) above, with A58S, L76A counted along it
Experimental: as §1, §2

Rluc-ADGRG2-ΔGPS-β W662A [1] = molecular target: T4, Rluc-ADGRG2-ΔGPS-β W662A (Mus musculus, UniProt Q8CJ12, W676A); experiment: BRET binding of FITC-VPM-p15; conditions: mutant W662A
T4 construct: the entire ECD (including the entire GPS motif) was removed (ADGRG2-ΔGPS-β); expressed in transfected cells; host or cells: HEK293
T4 sequence (Q8CJ12 618-1009 W676A limits assumed): as the sequence (Q8CJ12 618-1009 S675A limits assumed) above, with A58S, W59A counted along it
Experimental: as §1, §2

Rluc-ADGRG2-ΔGPS-β N759A [2] = molecular target: T5, Rluc-ADGRG2-ΔGPS-β N759A (Mus musculus, UniProt Q8CJ12, N773A); experiment: BRET binding of FITC-VPM-p15; conditions: mutant N759A
T5 construct: the entire ECD (including the entire GPS motif) was removed (ADGRG2-ΔGPS-β); expressed in transfected cells; host or cells: HEK293
T5 sequence (Q8CJ12 618-1009 N773A limits assumed): as the sequence (Q8CJ12 618-1009 S675A limits assumed) above, with A58S, N156A counted along it
Experimental: as §1, §2

Rluc-ADGRG2-ΔGPS-β WT = molecular target: T6, Rluc-ADGRG2-ΔGPS-β WT (Mus musculus, UniProt Q8CJ12); experiment: BRET binding of FITC-VPM-p15; conditions: receptor WT
T6 construct: the entire ECD (including the entire GPS motif) was removed (ADGRG2-ΔGPS-β); expressed in transfected cells; host or cells: HEK293
T6 sequence (Q8CJ12 618-1009 limits assumed, stated change not applied): as the sequence (Q8CJ12 618-1009 S675A limits assumed) above, with A58S counted along it
Experimental: as §1, §2

Rluc-ADGRG2-ΔGPS-β V836A = molecular target: T7, Rluc-ADGRG2-ΔGPS-β V836A (mouse, UniProt Q8CJ12-3 38-995, V836A); experiment: FRET or BRET; HEK293 cells transfected with Rluc-ADGRG2-ΔGPS-β WT or mutants, stimulated by increasing concentrations of FITC-conjugated VPM-p15; saturation curves fitted with GraphPad; each experiment repeated 6 times; conditions: one partner purified
T7 construct: ADGRG2 (GPR64), mouse, ADGRG2-ΔGPS-β: the entire ECD removed; source: HEK293, transfected, on cells; not shown: Rluc, N-terminal, kept
T7 sequence (Q8CJ12 other isoform, or with tags, fused parts or gaps V836A | V836A | V836A V836A): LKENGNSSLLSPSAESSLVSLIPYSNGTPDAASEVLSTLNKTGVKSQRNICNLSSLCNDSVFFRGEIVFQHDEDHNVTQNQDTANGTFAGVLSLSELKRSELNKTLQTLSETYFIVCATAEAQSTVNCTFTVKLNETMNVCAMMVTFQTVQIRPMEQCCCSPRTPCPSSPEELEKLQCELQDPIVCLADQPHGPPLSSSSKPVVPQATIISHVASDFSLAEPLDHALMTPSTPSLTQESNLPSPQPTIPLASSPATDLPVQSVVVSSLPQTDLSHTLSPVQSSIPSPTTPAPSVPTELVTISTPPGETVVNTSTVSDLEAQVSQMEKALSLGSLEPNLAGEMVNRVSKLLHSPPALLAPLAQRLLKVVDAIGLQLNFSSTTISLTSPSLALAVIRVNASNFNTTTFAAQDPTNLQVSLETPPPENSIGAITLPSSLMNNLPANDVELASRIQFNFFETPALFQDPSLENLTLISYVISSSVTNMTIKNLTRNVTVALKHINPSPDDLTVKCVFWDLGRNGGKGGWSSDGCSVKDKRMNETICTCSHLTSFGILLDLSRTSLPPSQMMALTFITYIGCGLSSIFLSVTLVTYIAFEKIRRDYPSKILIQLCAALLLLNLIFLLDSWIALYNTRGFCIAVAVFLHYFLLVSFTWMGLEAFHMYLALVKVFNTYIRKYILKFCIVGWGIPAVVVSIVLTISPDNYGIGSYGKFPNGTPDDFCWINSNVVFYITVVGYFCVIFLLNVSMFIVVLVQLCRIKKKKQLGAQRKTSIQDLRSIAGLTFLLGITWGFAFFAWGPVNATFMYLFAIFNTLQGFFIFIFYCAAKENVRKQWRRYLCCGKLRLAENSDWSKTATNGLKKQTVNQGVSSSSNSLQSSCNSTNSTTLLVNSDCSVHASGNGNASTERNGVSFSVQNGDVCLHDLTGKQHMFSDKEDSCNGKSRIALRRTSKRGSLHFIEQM

Rluc-ADGRG2-ΔGPS-β C614A = molecular target: T8, Rluc-ADGRG2-ΔGPS-β C614A (mouse, UniProt Q8CJ12-3 38-995, C614A); experiment: as above; conditions: one partner purified
T8 construct: ADGRG2 (GPR64), mouse, ADGRG2-ΔGPS-β: the entire ECD removed; source: HEK293, transfected, on cells; not shown: Rluc, N-terminal, kept
T8 sequence (Q8CJ12 other isoform, or with tags, fused parts or gaps C614A | C614A | C614A C614A): as the sequence (Q8CJ12 other isoform, or with tags, fused parts or gaps V836A | V836A | V836A V836A) above, with C577A, A799V counted along it

Rluc-ADGRG2-ΔGPS-β Y765A = molecular target: T9, Rluc-ADGRG2-ΔGPS-β Y765A (mouse, UniProt Q8CJ12-3 38-995, Y765A); experiment: as above; conditions: one partner purified
T9 construct: ADGRG2 (GPR64), mouse, ADGRG2-ΔGPS-β: the entire ECD removed; source: HEK293, transfected, on cells; not shown: Rluc, N-terminal, kept
T9 sequence (Q8CJ12 other isoform, or with tags, fused parts or gaps Y765A | Y765A | Y765A Y765A): as the sequence (Q8CJ12 other isoform, or with tags, fused parts or gaps V836A | V836A | V836A V836A) above, with Y728A, A799V counted along it

Rluc-ADGRG2-ΔGPS-β N759A [3] = molecular target: T10, Rluc-ADGRG2-ΔGPS-β N759A (mouse, UniProt Q8CJ12-3 38-995, N759A); experiment: as above; conditions: one partner purified
T10 construct: ADGRG2 (GPR64), mouse, ADGRG2-ΔGPS-β: the entire ECD removed; source: HEK293, transfected, on cells; not shown: Rluc, N-terminal, kept
T10 sequence (Q8CJ12 other isoform, or with tags, fused parts or gaps N759A | N759A | N759A N759A): as the sequence (Q8CJ12 other isoform, or with tags, fused parts or gaps V836A | V836A | V836A V836A) above, with N722A, A799V counted along it

Rluc-ADGRG2-ΔGPS-β W662A [4] = molecular target: T11, Rluc-ADGRG2-ΔGPS-β W662A (mouse, UniProt Q8CJ12-3 38-995, W662A); experiment: as above; conditions: one partner purified
T11 construct: ADGRG2 (GPR64), mouse, ADGRG2-ΔGPS-β: the entire ECD removed; source: HEK293, transfected, on cells; not shown: Rluc, N-terminal, kept
T11 sequence (Q8CJ12 other isoform, or with tags, fused parts or gaps W662A | W662A | W662A W662A): as the sequence (Q8CJ12 other isoform, or with tags, fused parts or gaps V836A | V836A | V836A V836A) above, with W625A, A799V counted along it

Rluc-ADGRG2-ΔGPS-β V762A = molecular target: T12, Rluc-ADGRG2-ΔGPS-β V762A (mouse, UniProt Q8CJ12-3 38-995, V762A); experiment: as above; conditions: one partner purified
T12 construct: ADGRG2 (GPR64), mouse, ADGRG2-ΔGPS-β: the entire ECD removed; source: HEK293, transfected, on cells; not shown: Rluc, N-terminal, kept
T12 sequence (Q8CJ12 other isoform, or with tags, fused parts or gaps V762A | V762A | V762A V762A): as the sequence (Q8CJ12 other isoform, or with tags, fused parts or gaps V836A | V836A | V836A V836A) above, with V725A, A799V counted along it

Rluc-ADGRG2-ΔGPS-β F838A = molecular target: T13, Rluc-ADGRG2-ΔGPS-β F838A (mouse, UniProt Q8CJ12-3 38-995, F838A); experiment: as above; conditions: one partner purified
T13 construct: ADGRG2 (GPR64), mouse, ADGRG2-ΔGPS-β: the entire ECD removed; source: HEK293, transfected, on cells; not shown: Rluc, N-terminal, kept
T13 sequence (Q8CJ12 other isoform, or with tags, fused parts or gaps F838A | F838A | F838A F838A): as the sequence (Q8CJ12 other isoform, or with tags, fused parts or gaps V836A | V836A | V836A V836A) above, with A799V, F801A counted along it

Rluc-ADGRG2-ΔGPS-β I663A = molecular target: T14, Rluc-ADGRG2-ΔGPS-β I663A (mouse, UniProt Q8CJ12-3 38-995, I663A); experiment: as above; conditions: one partner purified
T14 construct: ADGRG2 (GPR64), mouse, ADGRG2-ΔGPS-β: the entire ECD removed; source: HEK293, transfected, on cells; not shown: Rluc, N-terminal, kept
T14 sequence (Q8CJ12 other isoform, or with tags, fused parts or gaps I663A | I663A | I663A I663A): as the sequence (Q8CJ12 other isoform, or with tags, fused parts or gaps V836A | V836A | V836A V836A) above, with I626A, A799V counted along it

[5] = Kd(mutated ADGRG2-ΔGPS-β)/Kd(WT)

| Molecule | Fmut (Rluc-ADGRG2-ΔGPS-β M839A; [5]) | Bmax (Rluc-ADGRG2-ΔGPS-β M839A; binding Bmax (BRET)) | Fmut (Rluc-ADGRG2-ΔGPS-β S661A; [5]) | Bmax (Rluc-ADGRG2-ΔGPS-β S661A; binding Bmax (BRET)) | Fmut (Rluc-ADGRG2-ΔGPS-β L679A; [5]) | Bmax (Rluc-ADGRG2-ΔGPS-β L679A; binding Bmax (BRET)) | Fmut (Rluc-ADGRG2-ΔGPS-β W662A [1]; [5]) | Bmax (Rluc-ADGRG2-ΔGPS-β W662A [1]; binding Bmax (BRET)) | Fmut (Rluc-ADGRG2-ΔGPS-β N759A [2]; [5]) | Bmax (Rluc-ADGRG2-ΔGPS-β N759A [2]; binding Bmax (BRET)) | Fmut (Rluc-ADGRG2-ΔGPS-β WT; [5]) | Bmax (Rluc-ADGRG2-ΔGPS-β WT; binding Bmax (BRET)) | EC50 (Rluc-ADGRG2-ΔGPS-β V836A) | EC50 (Rluc-ADGRG2-ΔGPS-β C614A) | EC50 (Rluc-ADGRG2-ΔGPS-β Y765A) | EC50 (Rluc-ADGRG2-ΔGPS-β N759A [3]) | EC50 (Rluc-ADGRG2-ΔGPS-β W662A [4]) | EC50 (Rluc-ADGRG2-ΔGPS-β V762A) | EC50 (Rluc-ADGRG2-ΔGPS-β F838A) | EC50 (Rluc-ADGRG2-ΔGPS-β I663A) |
| --- | --- | --- | --- | --- | --- | --- | --- | --- | --- | --- | --- | --- | --- | --- | --- | --- | --- | --- | --- | --- |
| CC[C@H](C)[C@H](NC(=O)CNC(=O)[C@H](Cc1ccc(C)cc1)NC(=O)[C@H](CO)NC(=O)[C@@H](N)C(C)C)C(=O)N[C@@H](CC(C)C)C(=O)N[C@@H](CC(C)C)C(=O)N[C@@H](CC(=O)O)C(=O)N[C@@H](CC(C)C)C(=O)N[C@@H](CO)C(=O)N[C@@H](CCCNC(=N)N)C(=O)N[C@H](C(=O)N[C@@H](CO)C(=O)N[C@@H](CC(C)C)C(=O)N1CCC[C@H]1C(=O)N[C@@H](CCCCNC(=S)Nc1ccc2c(c1)C(=O)OC21c2ccc(O)cc2Oc2cc(O)ccc21)C(=O)O)[C@@H](C)O [FITC-VPM-p15] (H-VS[Phe(4-Me)]GILLDLSRTSLPK(FITC)-OH; N-terminus and C-terminus assumed) | 0.957 | 0.764±0.008 | 0.832 | 0.6895±0.021 | 1.242 | 0.7804±0.017 | 1.128 | 0.808±0.047 | 1.655 | 0.713±0.011 | 1.000 | 0.809±0.015 | – | – | – | – | – | – | – | – |
| B1 | – | – | – | – | – | – | – | – | – | – | – | – | 1.23 µM | 1.29 µM | 0.905 µM | 1.55 µM | 1.06 µM | 1.19 µM | 0.767 µM | 0.772 µM |

From paper PMC7948503, “Optimization of a peptide ligand for the adhesion GPCR ADGRG2 provides a potent tool to explore receptor biology” (The Journal of Biological Chemistry, 2020)
